# According to patent US9040103B2, “Use of essential oil of oregano and of rosewood, or constituents thereof, in the therapeutic treatment of keratoses” (L'Oreal, priority 2010, dated 2015):
# Tested on: A431 cells
# Experiment: Apoptosis, annexin V/propidium iodide (AV/PI) test
# Assay type: cell-based, human
# Settings: 12 h; for death by targeted apoptosis of mutated cancer cells: A431 vs HEK001, linalool 320 nL/mL, carvacrol 60 nL/mL, thymol 30 nL/mL; for cytotoxic efficacy compared with the complex essential oils: concentrations equal to those present in the essential oil treatments
# Experimental: These three molecules were incubated for 12 h with non-mutated immortalized keratinocytes (HEK001) and mutated cancerous keratinocytes (A431). The percentage of cells in apoptosis was measured by the annexin V/propidium iodide test. The concentrations of the molecules used were equal to those present during the treatments with the essential oils. Example: the concentration of linalool used here represents the equivalent of 80% of linalool present in the essential oil of rosewood.
# Annexin V/Propidium Iodide Test:
# One of the markers for apoptosis is the translocation of phosphatidyl-serine from the internal face towards the external face of the plasma membrane (translocation, allowing apoptotic bodies to be recognized and phagocyted by the macrophages).
# The AV/PI test can be used to detect this event because of the affinity of the protein annexin V for phosphatidyl-serine. Propidium iodide, which targets DNA, can be used to distinguish early apoptotic cells from cells in late apoptosis and/or in necrosis.
# After the desired treatment time, the medium was eliminated, the cells were harvested (by trypsinization), centrifuged and rinsed in 4 mL of PBS 1×. Tagging was carried out following the instructions of the manufacturer (Kit Vybrant, Molecular Probe). The cells were rapidly taken up in 100 μl of tagging buffer, to which 6 μl of annexin V and 3 μg/mL of propidium iodide per sample was added. The cells were then incubated for 30 min in the dark (at ambient temperature). Four hundred μL of tagging buffer was added before measuring the fluorescence of the annexin V (at 530 nm) and of the propidium iodide (at 610 nm).
Structure (SMILES),apoptotic A431 cells (60 nL/mL) [%],death by targeted apoptosis of mutated cancer cells,cytotoxic efficacy compared with the complex essential oils,apoptotic A431 cells (30 nL/mL)
Cc1ccc(C(C)C)cc1O [carvacrol],~25,qualitatively conserved,lower than with complex essential oils,
C=CC(C)(O)CCC=C(C)C (centres unmarked) [linalool],,qualitatively conserved,lower than with complex essential oils,
Cc1ccc(C(C)C)c(O)c1 [thymol],,qualitatively conserved,lower than with complex essential oils,approximately 15%
